23 compounds from ChEMBL document CHEMBL1146667, “Benzodiazepine-based selective inhibitors of mitochondrial F1F0 ATP hydrolase” (Bioorg Med Chem Lett, 2004) can be followed below.

Test [1] has as its target T1, Mitochondrial complex V; ATP synthase (Bos taurus, UniProt P00829+P05630+P05631+P05632). Briefly: Inhibitory activity against bovine mitochondrial F1F0-ATP synthase. The test is classed as protein-complex assay.
The target of test [2] is T1, Mitochondrial complex V; ATP synthase. Kind of test: Inhibitory activity against bovine mitochondrial F1F0-ATP hydrolase. The class given is protein-complex assay.
The target in test [3] is T2, Cytochrome P450 2C9 (Homo sapiens, UniProt P11712). Kind of test: Inhibitory activity against cytochrome P450 2C9. The class given is ADME.
T2 sequence (P11712 whole entry): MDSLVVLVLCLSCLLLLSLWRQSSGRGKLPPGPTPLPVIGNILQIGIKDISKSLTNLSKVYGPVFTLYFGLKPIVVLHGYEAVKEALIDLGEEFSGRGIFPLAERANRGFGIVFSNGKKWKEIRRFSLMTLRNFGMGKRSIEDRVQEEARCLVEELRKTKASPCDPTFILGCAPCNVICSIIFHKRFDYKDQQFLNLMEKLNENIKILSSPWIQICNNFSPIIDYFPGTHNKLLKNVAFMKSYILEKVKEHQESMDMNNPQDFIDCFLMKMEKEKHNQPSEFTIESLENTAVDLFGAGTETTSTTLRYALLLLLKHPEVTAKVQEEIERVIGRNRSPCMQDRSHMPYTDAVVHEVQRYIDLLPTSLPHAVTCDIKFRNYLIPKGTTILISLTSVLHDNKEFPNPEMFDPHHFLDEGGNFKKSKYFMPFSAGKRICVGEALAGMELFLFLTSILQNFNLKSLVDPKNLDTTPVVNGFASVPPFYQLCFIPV
The target of test [4] is T2, Cytochrome P450 2C9. Kind of test: Inhibitory activity against ccytochrome P450 2C9.

Molecules are shown by their SMILES. A value given as a limit tells only on which side of the number the result lay.

T1 sequence (P05632 whole entry): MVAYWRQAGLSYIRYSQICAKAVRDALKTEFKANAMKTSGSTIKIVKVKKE
T1 sequence (P00829 whole entry): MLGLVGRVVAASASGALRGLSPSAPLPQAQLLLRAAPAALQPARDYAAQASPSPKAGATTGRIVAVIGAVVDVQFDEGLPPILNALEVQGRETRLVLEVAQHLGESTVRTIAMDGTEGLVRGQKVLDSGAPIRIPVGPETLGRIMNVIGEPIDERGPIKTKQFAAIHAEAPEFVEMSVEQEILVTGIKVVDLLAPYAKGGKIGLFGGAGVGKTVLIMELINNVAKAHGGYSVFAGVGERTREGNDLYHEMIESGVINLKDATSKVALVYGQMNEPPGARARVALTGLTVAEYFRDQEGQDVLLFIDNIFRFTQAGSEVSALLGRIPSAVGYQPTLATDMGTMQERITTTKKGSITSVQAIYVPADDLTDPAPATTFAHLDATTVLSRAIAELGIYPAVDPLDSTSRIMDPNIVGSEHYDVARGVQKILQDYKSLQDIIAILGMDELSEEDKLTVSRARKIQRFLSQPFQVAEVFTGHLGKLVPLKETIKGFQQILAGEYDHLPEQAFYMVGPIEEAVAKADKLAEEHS
T1 sequence (P05631 whole entry): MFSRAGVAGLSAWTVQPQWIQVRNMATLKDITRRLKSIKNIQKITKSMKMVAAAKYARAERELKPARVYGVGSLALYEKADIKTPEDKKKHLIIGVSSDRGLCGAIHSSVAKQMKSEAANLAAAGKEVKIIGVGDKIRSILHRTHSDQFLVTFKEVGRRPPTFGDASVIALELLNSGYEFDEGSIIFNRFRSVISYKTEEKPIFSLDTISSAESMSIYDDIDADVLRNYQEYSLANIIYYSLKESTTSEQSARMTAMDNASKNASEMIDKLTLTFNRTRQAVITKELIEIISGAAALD
T1 sequence (P05630 whole entry): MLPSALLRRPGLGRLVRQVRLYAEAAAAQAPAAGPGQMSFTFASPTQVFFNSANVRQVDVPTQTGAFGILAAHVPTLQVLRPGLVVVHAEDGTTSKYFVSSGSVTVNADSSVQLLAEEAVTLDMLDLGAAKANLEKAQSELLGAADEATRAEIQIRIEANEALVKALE

The IC50 is the midpoint of a concentration-inhibition curve. Lower therefore signals greater potency in that assay. On to `O=[N+]([O-])c1cccc(S(=O)(=O)N2Cc3ccccc3N(Cc3cnc[nH]3)C(CCc3ccccc3)C2)c1` (centres undefined), for which the IC50 in test [1] is > 30 µM; in test [2] it was 0.423 µM.
In the same order, the values of `Cc1nc(CN2c3ccccc3CN(S(=O)(=O)c3ccc(F)cc3)CC2CCc2ccccc2)c[nH]1` (centres undefined) are > 30 µM and 9.62 µM.
In the same order, the values of `O=S(=O)(N1Cc2ccccc2N(Cc2c[nH]cn2)C(CCc2ccccc2)C1)C(F)(F)F` (centres undefined) are > 30 µM and 0.077 µM.
In the same order, the values of `O=S(=O)(c1cccs1)N1Cc2ccccc2N(Cc2cnc[nH]2)C(CCc2ccccc2)C1` (centres undefined) are > 30 µM and 0.636 µM.
As to `O=S(=O)(c1ccc(F)cc1)N1Cc2ccccc2N(Cc2c[nH]cn2)C(CCc2ccccc2)C1` (centres undefined), the IC50 in test [1] is > 30 µM; in test [2] it was 0.221 µM.
In the same order, the values of `O=S(=O)(c1cccc2nonc12)N1Cc2ccccc2N(Cc2cnc[nH]2)C(CCc2ccccc2)C1` (centres undefined) are > 30 µM and 1.78 µM.
In the same order, the values of `O=S(=O)(Cc1ccccc1)N1Cc2ccccc2N(Cc2c[nH]cn2)C(CCc2ccccc2)C1` (centres undefined) are > 30 µM and 2.41 µM.
In the same order, the values of `CC(=O)Nc1ccc(S(=O)(=O)N2Cc3ccccc3N(Cc3cnc[nH]3)C(CCc3ccccc3)C2)cc1` (centres undefined) are > 30 µM and 2.98 µM.
For the compound `O=S(=O)(c1ccccc1)N1Cc2ccccc2N(Cc2cnc[nH]2)C(CCc2ccccc2)C1` (centres undefined), the IC50 in test [1] was > 30 µM; in test [2], 0.282 µM.
In the same order, the values of `Cc1nc[nH]c1CN1c2ccccc2CN(S(=O)(=O)c2ccc(F)cc2)CC1CCc1ccccc1` (centres undefined) are > 30 µM and 0.151 µM.
In the same order, the values of `O=S(=O)(c1cc(Cl)ccc1Cl)N1Cc2ccccc2N(Cc2cnc[nH]2)C(CCc2ccccc2)C1` (centres undefined) are > 30 µM and 0.158 µM.
For `Cc1[nH]cnc1CN1c2ccccc2CN(S(=O)(=O)c2ccc(C(C)(C)C)cc2)CC1CCc1ccccc1` (centres undefined), the IC50 in test [1] is > 30 µM; against Cytochrome P450 2C9 [3] it was 3 µM; in test [2] it was 0.077 µM.
With `O=S(=O)(c1cccc2cccnc12)N1Cc2ccccc2N(Cc2c[nH]cn2)C(CCc2ccccc2)C1` (centres undefined), the IC50 in test [1] is > 30 µM; in test [2], 2.93 µM.
Turning to `Cc1nc[nH]c1CN1c2ccccc2CN(Cc2ccc(C(C)(C)C)cc2)CC1CCc1ccccc1` (centres undefined), the IC50 in test [1] was > 30 µM; in test [2] it was 2.35 µM.
In the same order, the values of `N#Cc1ccc(S(=O)(=O)N2Cc3ccccc3N(Cc3cnc[nH]3)C(CCc3ccccc3)C2)cc1` (centres undefined) are > 30 µM and 0.255 µM.
In the same order, the values of `O=S(=O)(c1ccc(O)cc1)N1Cc2ccccc2N(Cc2cnc[nH]2)C(CCc2ccccc2)C1` (centres undefined) are > 30 µM and 0.667 µM.
For `CC(C)(C)c1ccc(S(=O)(=O)N2Cc3ccccc3N(Cc3c[nH]cn3)C(CCc3ccccc3)C2)cc1` (centres undefined), the IC50 on Cytochrome P450 2C9 [4] is 0.038 µM; in test [1], > 30 µM; in test [2], 0.008 µM.
For the compound `COc1ccc(S(=O)(=O)N2Cc3ccccc3N(Cc3c[nH]cn3)C(CCc3ccccc3)C2)cc1` (centres undefined), the results for the IC50 in test [1] and in test [2] were > 30 µM and 0.077 µM, respectively.
In the same order, the values of `N#Cc1ccc(S(=O)(=O)N2Cc3ccccc3N(Cc3c[nH]cn3)C(CCc3ccccc3)C2)c(Cl)c1` (centres undefined) are > 30 µM and 0.939 µM.
In the same order, the values of `O=S(=O)(c1cccc2ccccc12)N1Cc2ccccc2N(Cc2cnc[nH]2)C(CCc2ccccc2)C1` (centres undefined) are > 30 µM and 0.338 µM.
Consider `Cc1nc[nH]c1CN1c2ccccc2CN(S(=O)(=O)c2ccc(Cl)c(Cl)c2)CC1CCc1ccccc1` (centres undefined), for which the IC50 in test [1] was > 30 µM; against Cytochrome P450 2C9 [3] it was 2 µM; in test [2], 0.022 µM.
In the case of `CC(C)(C)c1ccc(CN2Cc3ccccc3N(Cc3cnc[nH]3)C(CCc3ccccc3)C2)cc1` (centres undefined), the figures for the IC50 in test [1] and in test [2] were > 30 µM and 2.14 µM, respectively.
In the case of `CC(C)(C)c1ccc(S(=O)(=O)N2Cc3ccccc3N(Cc3ncc[nH]3)C(CCc3ccccc3)C2)cc1` (centres undefined), the values for the IC50 in test [1] and in test [2] were > 30 µM and > 10 µM, respectively.
